Test results as given in patent publication US20110224256A1, “T[…] THE TREATMENT OF PSYCHIATRIC DISORDERS” (priority 2008, published 2011).
Values joined by “and” are separate entries in the source; they are usually repeats but may differ in a detail not shown here. Equal values may be shown once. Where a name gives a salt, the structure may show the parent alone.

What was measured:
Sprague-Dawley male rats = test: rCBV by MRI with MION contrast after MPH challenge in adulthood; assay type: in vivo
Protocol: MRI was conducted in two groups of animals (MPH-treated or VEH treated; n=7) at approximately 60 days old. Functional changes in rCBV were determined by drug-induced alterations following paramagnetic contrast agent […] iron oxide nanocolloid (MION) in anesthetized treated subjects (Chen et al., 2001). All experiments were performed at 2 T or 4.7 T on a GE Omega CSI instrument (GE, Fremont, Calif., USA) using a home-built surface coil for transmit-receive and immobilization of the head using a rigid plastic head holder. All VEH/MPH subjects were matched for scanner strength to control for any possible differences due to magnet strength (Mandeville et al., Magn. Reson. Med., 52:1272-1281 (2004)). […]
According to standard methods, 20 baseline images were collected, followed by a 10 mg/kg injection of MION (an iron particle-based contrast agent that produces long-lasting intravascular contrast for T2* contrast measures) and an additional 20 baseline images. […] Images were measured serially with a temporal resolution of 2 min.
All functional images within each condition were registered onto the same standard brain template to facilitate comparisons between the experimental groups. Registration parameters were determined for each functional scan using a single full-brain image set that is the average of all baseline time points prior to drug injection. […]

D2 dopamine receptor = D2 dopamine receptor binding in the striatum by quantitative autoradiography after juvenile methylphenidate; assay type: in vivo, rats; details: 40 days of age, postnatal day 20-35
Protocol: FIG. 7. In this study, rats were administered a dosage of 2 mg/kg methylphenidate either by osmotic minipump (continuous release) or twice daily by interperitoneal injection (intermittent) between the ages of postnatal day 20-35. D2 dopamine receptor binding was assessed in the striatum at 40 days of age using quantitative autoradiography (see Andersen et al., Synapse 37:167-169 (2000)).

D3 receptor mRNA = D3 receptor mRNA by Q-PCR after juvenile drug exposure; assay type: in vivo, Sprague-Dawley rats; details: for reduction in D3 receptor mRNA: MPH 2 mg/kg i.p. twice daily P20-P35, HCl
[1] = 0.5 mg/kg i.p., within 5 min, rats; cited from earlier work
BDNF = BDNF mRNA and protein in MPH-exposed subjects after cocaine challenge; assay type: in vivo, rats; details: in response to cocaine challenge, preliminary, data not shown
Excerpt: Changes in D3 expression and function may signal a sensitive period of development, when drug imprinting is likely to occur (Andersen, Trends Pharmacol. Sci., 26:237-243 (2005)). Drug-induced perturbations before the completion of dopamine receptor development may prevent these developmental rearrangements.

[2] = system: dopamine receptors D1, D2 long, D4 and D5 mRNA; test: D1, D2 long, D4 and D5 receptor mRNA by Q-PCR after juvenile MPH exposure; assay type: in vivo, Sprague-Dawley rats; details: MPFCx, 25 days after cessation of MPH, P>0.1

In the case of `COC(=O)C(c1ccccc1)C1CCCCN1` (stereo not drawn) [MPH, d,l-Methylphenidate HCl], the “rCBV change after MPH challenge in adulthood” value (Sprague-Dawley male rats; MPFCx, juvenile MPH 2 mg/kg twice daily P20-P35 vs VEH-treated, 2 mg/kg i.v. MPH challenge) was “significantly increased”, the “enduring effects of juvenile exposure on rCBV” value (Sprague-Dawley male rats; dorsolateral PFCx or caudate putamen, juvenile MPH exposure) was “no significant enduring effects” and the D2 receptor density (D2 dopamine receptor; 2 mg/kg by osmotic minipump (continuous release)) was “but not when administered by continuous release”. For the same compound, the D2 receptor density (D2 dopamine receptor; 2 mg/kg twice daily by intraperitoneal injection (intermittent)) was “reduced significantly”, the “reduction in D3 receptor mRNA” value (D3 receptor mRNA; MPFCx, assessed at P40) was 28.9±8.3% and 28.9% and the “D3 mRNA levels in the place-conditioned animals” value (D3 receptor mRNA; MPFCx, corrected by GAPDH, juvenile MPH 2 mg/kg or MPH + 0.05 mg/kg Naf, F3,20=8.76, P<0.001) was “significantly changed”. For the same compound, the “reduction in D3 receptor mRNA” value (D3 receptor mRNA; MPFCx, relative to VEH controls, 25 days post-exposure (P60)) was 23.8±6.7% and 23.8%, the “D3 mRNA change” value (D3 receptor mRNA; accumbens or striatum, MPH-exposed, P>0.5) was “did not change” and the plasma levels [1] was 36 ng/mL. The “BDNF mRNA” value (BDNF) was “reduced”, the BDNF protein levels (BDNF) was “modestly, but significantly, lower” and the “changes in other dopamine receptor subtype mRNA (D1, D2 long, D4, D5)” value [2] was “No other significant changes”.
